Data on 2 compounds can be found in patent publication US12018267B2, “Plants having increased tolerance to herbicides” (BASF SE, priority 2015, dated 2024).

Common to all, as to assay type: in vivo, Oryza sativa
For assay [1], the system named is wild type rice materials (O. sativa M2 Volano). Briefly: Greenhouse foliar application, crop injury on wild type rice materials (Tables E10-1, E10-2). The settings on record: wild type rice (OsCESA WT). The source says: (§1) Oryza sativa M2 Volano is a cellulose biosynthesis inhibitor susceptible rice risotto population that was subjected to sodium azide seed mutagenesis but was not tilled nor selected for CESA mutations. O. sativa Volano-M3-CESA1 and CESA3 mutants were selected from a subpopulation of O. sativa M2 Volano by sequencing CESA gene sequences in M2 plants and maintaining (producing seed through selfing) those individuals containing key mutations in these genes. The tolerance of the M3 CESA1 and CESA3 mutants was assessed using 6-(1-fluorocyclopentyl)-N2-(2,3,5,6-tetrafluorophenyl)-1,3,5-triazine-2,4-diamine, together with 1.0% DASH® EC adjuvant (BASF). The tolerance of M4 CESA1 and CESA3 mutants was assessed using 6-cyclopentyl-N4-(2,3,4,5,6-pentafluorophenyl)-1,3,5-triazine-2,4-diamine, together with 1.0% DASH® EC adjuvant (BASF).
(§2) M3 seed, which were harvested from tilled and selected individuals containing mutations in the CESA1 and CESA3 genes, were grown in the greenhouse under natural light conditions supplemented with 400 W sodium halide lamps under a 16 hr day length. Day/night temperatures were 26 and 20° C., respectively. The number of M3 plants from each line varied between 2 and 16, depending on seed availability and germination. A non-selective CBI, azine 6-(1-fluorocyclopentyl)-N2-(2,3,5,6-tetrafluorophenyl)-1,3,5-triazine-2,4-diamine, formulated with 1.0% DASH in a water volume of 375 L/ha was applied early post-emergent (one to two leaf stage) at a rate of 250 g ai/ha to M3 CESA1 and CESA3 mutant rice plants growing in soil in the greenhouse. Only plants originating from lines having more than four seeds were subjected to herbicide treatment. CESA mutant lines with four or fewer seeds were selfed for an additional generation and then tested at the M4 generation with 6-cyclopentyl-N4-(2,3,4,5,6-pentafluorophenyl)-1,3,5-triazine-2,4-diamine. M4 plants were grown under similar conditions as M3 plants and treated with 250 g ai/ha or 500 g ai/ha of 6-cyclopentyl-N4-(2,3,4,5,6-pentafluorophenyl)-1,3,5-triazine-2,4-diamine. Previous kill curve greenhouse tests had identified that a rate of 250 g ai/ha of 6-(1-fluorocyclopentyl)-N2-(2,3,5,6-tetrafluorophenyl)-1,3,5-triazine-2,4-diamine and a rate of 250 g ai/ha 6-cyclopentyl-N4-(2,3,4,5,6-pentafluorophenyl)-1,3,5-triazine-2,4-diamine, both with 1.0% DASH, were sufficient doses to kill O. sativa M2 Volano check plants. […] Plants were assessed for crop injury, using a scale from 0% injury to 100% injury, at 11 and 21 days after treatment (DAT) for M3 plants applied with 6-(1-fluorocyclopentyl)-N2-(2,3,5,6-tetrafluorophenyl)-1,3,5-triazine-2,4-diamine and 36 DAT for M4 plants applied with 6-cyclopentyl-N4-(2,3,4,5,6-pentafluorophenyl)-1,3,5-triazine-2,4-diamine. Plants without any symptoms were recorded as “0%” injury. Increasing levels of reduced leaf mass and reduced stalk stiffness, with respect to the untreated control plants, were recorded in the range of “1 to 49%” injury. Increasing levels of leaf abnormalities and leaf necrosis, along with increased levels of lodging, relative to the untreated control plants, were recorded in the range of “50 to 85%” injury. Dead or dying plants with necrosis of the apex and severe lodging were recorded between “86-100%”. Data on individual plants was assessed and recorded due to the low number of individuals per line and the fact that the CESA mutations in the M2 generation were heterozygous and therefore segregating at the M3 and M4 generations. […]

Assay [2] relates to Rice M4 CESA1 and CESA3 mutants. Briefly: Greenhouse foliar application, crop injury on tilled Rice M4 generation cellulose synthase mutants (Table E10-2).
Source text: as §1, §2

Assay [3] concerns O. sativa M2 Volano check plants. Briefly: Previous kill curve greenhouse tests on rice check plants. The settings on record: with 1.0% DASH. How it is done: M3 seed, which were harvested from tilled and selected individuals containing mutations in the CESA1 and CESA3 genes, were grown in the greenhouse under natural light conditions supplemented with 400 W sodium halide lamps under a 16 hr day length. Day/night temperatures were 26 and 20° C., respectively. The number of M3 plants from each line varied between 2 and 16, depending on seed availability and germination. […] Plants were assessed for crop injury, using a scale from 0% injury to 100% injury, at 11 and 21 days after treatment (DAT) for M3 plants applied with 6-(1-fluorocyclopentyl)-N2-(2,3,5,6-tetrafluorophenyl)-1,3,5-triazine-2,4-diamine and 36 DAT for M4 plants applied with 6-cyclopentyl-N4-(2,3,4,5,6-pentafluorophenyl)-1,3,5-triazine-2,4-diamine. Plants without any symptoms were recorded as “0%” injury. Increasing levels of reduced leaf mass and reduced stalk stiffness, with respect to the untreated control plants, were recorded in the range of “1 to 49%” injury. Increasing levels of leaf abnormalities and leaf necrosis, along with increased levels of lodging, relative to the untreated control plants, were recorded in the range of “50 to 85%” injury. Dead or dying plants with necrosis of the apex and severe lodging were recorded between “86-100%”. […]

The mark [4] stands for this setting: Rice M4 OsCesA1 S827N (SEQ ID 51), parental plant Hom, 250 g ai/ha.
The mark [5] stands for this setting: Rice M4 OsCesA1 T952I (SEQ ID 51), parental plant Het, 500 g ai/ha.

Molecules are shown by their SMILES. Where “and” joins values, the source holds several entries; their conditions need not be identical. Identical values can stand only once.

As for `Nc1nc(Nc2c(F)c(F)c(F)c(F)c2F)nc(C2CCCC2)n1` [6-cyclopentyl-N4-(2,3,4,5,6-pentafluorophenyl)-1,3,5-triazine-2,4-diamine], the “Crop injury assessment (%) at 23 DAT” value in assay [1] (foliar application 250 g ai/ha) was 75% and 65%; in assay [1] (foliar application 500 g ai/ha) it was 98% and 95%; in assay [2] (setting [4]), 0%; in assay [2] (Rice M4 OsCesA1 T952I (SEQ ID 51), parental plant Het, 250 g ai/ha), 0%; in assay [2] (setting [5]), 10%. Moreover, the “Crop injury assessment (%) at 36 DAT” value in assay [1] (foliar application 250 g ai/ha) is 70% and 95%; in assay [1] (foliar application 500 g ai/ha) it was 100%; in assay [2] (setting [4]), 0%; in assay [2] (setting [5]), 10%. Moreover, in assay [3], the “rate sufficient to kill O. sativa M2 Volano check plants” value is recorded as 250 g ai/ha.
With `Nc1nc(Nc2c(F)c(F)cc(F)c2F)nc(C2(F)CCCC2)n1` [6-(1-fluorocyclopentyl)-N2-(2,3,5,6-tetrafluorophenyl)-1,3,5-triazine-2,4-diamine], in assay [1] (foliar application 250 g ai/ha, 20 DAT), the “Crop Injury Assessment (%) at 20 DAT” value was determined as 100%. The “rate sufficient to kill O. sativa M2 Volano check plants” value in assay [3] turned out to be 250 g ai/ha.
